This note sets out measurements from paper PMC4643876, “Picomolar Inhibition of Plasmepsin V, an Essential Malaria Protease, Achieved Exploiting the Prime Region” (PLoS ONE, 2015).

Experiment [1] relates to Plasmodium falciparum strain 3D7. The experiment in a line: Parasite growth inhibition by flow cytometry, strain 3D7. Conditions: asynchronous 3D7 cultures, about 4 days, 0.195–200 μM, flow cytometry. In kind it is cell-based.
For experiment [2], the target named is T1, Plasmepsin V (PmV) (Plasmodium falciparum, UniProt Q8I6Z5).
T1 construct: PmV was purified directly from parasites; made in house
T1 sequence (Q8I6Z5 whole entry): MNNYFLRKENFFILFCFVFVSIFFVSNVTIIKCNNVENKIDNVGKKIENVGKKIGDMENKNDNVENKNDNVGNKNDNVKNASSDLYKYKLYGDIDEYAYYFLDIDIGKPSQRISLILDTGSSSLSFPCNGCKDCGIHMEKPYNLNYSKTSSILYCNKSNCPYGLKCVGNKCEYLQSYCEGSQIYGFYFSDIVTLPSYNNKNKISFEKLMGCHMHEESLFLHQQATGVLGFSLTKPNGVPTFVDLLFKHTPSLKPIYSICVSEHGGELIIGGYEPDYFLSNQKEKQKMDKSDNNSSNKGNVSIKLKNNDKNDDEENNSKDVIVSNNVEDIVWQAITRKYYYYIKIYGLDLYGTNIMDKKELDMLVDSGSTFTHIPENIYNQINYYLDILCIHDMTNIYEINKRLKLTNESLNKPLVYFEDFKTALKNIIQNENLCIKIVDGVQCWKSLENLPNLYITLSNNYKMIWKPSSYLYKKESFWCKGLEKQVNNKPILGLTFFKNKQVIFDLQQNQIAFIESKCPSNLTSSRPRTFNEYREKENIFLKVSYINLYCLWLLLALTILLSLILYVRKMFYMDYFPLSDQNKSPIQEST
In words: PmV inhibition, fluorimetric PExEl cleavage assay. In kind it is biochemical. On the procedure: Saponin was added to culture to a final 0.05%; parasites were recovered via centrifugation at 4°C after 5 min of incubation on ice; parasite pellets were then washed twice in cold PBS and either immediately lysed or stored at -80°C until lysis. Parasites were lysed via three pulses of ultra-sonication of 10 sec duration, in PBS containing 0.5% Triton-X100 (TX-100). […] Quick washes of the resin were performed either in batches, or over columns, to remove unbound cellular material (four with ice-cold 0.5% TX-100 in PBS and a final one with cold PBS). Resin-bound PmV was stored in PBS at 4°C and used within 2–3 weeks, larger batches had Glycerol added to them, up to 10%, and were stored at -20°C for up to 5 months. […] Quality and purity of PmV batches were routinely confirmed by protein electrophoresis. Quantification of PmV was performed via densitometry analysis of stained protein SDS-PAGE gels relative to BSA standard curves.
(§1) PExEl cleavage activity was monitored by fluorimetric measurement of PExEl cleavage, as previously reported. […] PmV activity was performed at 37°C in 50 mM Tris-Maleate, pH 6.5, 50 mM NaCl, 0.05% TX-100, 2 mM DTT. Assays were routinely conducted in triplicate. Bead-bound enzyme was added to the reaction using ‘end-cut’ micropipette tips in order to facilitate sampling the suspension.
Inhibitory activities were measured in the presence of a substrate concentration of 3 μM by serial dilution of each compound in triplicates. […] Titration curves of the inhibitors were routinely composed of eleven points from 10 μM to 0.1 pM. PmV concentration was kept in the order of low picomolar (≤10 pM). […] Analysis of the half inhibitory activity (IC50) was performed by sigmoidal interpolation of the starting velocities of the hydrolytic reactions for each condition. Starting velocities were calculated on the initial linear range of the product progression curves. […] Data are presented with error bars indicating the standard deviation of three independent activity curves.

Experiment [3] deals with T1, Plasmepsin V (PmV). The experiment in a line: PmV steady-state kinetics of substrate hydrolysis. It counts as biochemical. On the procedure: as §1
Steady-state measurements of PmV substrate hydrolysis were analyzed assuming the widely accepted aspartic protease mechanism, E + S → ES → ET* → EP → E + P, where P is the product of the reaction; S is the substrate; E is the free enzyme; ES, ET* and EP denote the enzyme-substrate, the transition state and enzyme-product adducts, respectively. The measurement of steady-state velocity of product formation, v = d[P]/dt, yielded catalytic constants according to the classical Michaelis-Menten equation v = e * kcat *[S] / ([S] + K M), where e is enzyme concentration. In our experimental conditions the fluorescence of HETQ-EDANS (AnaSpec), the reaction product (P), was quantified by titration. PmV kinetics parameters were calculated using non-linear curve-fitting analyses from SigmaPlot on the basis of measurements with multiple substrate concentrations monitored until the completion of the reaction. […]

The subject of experiment [4] is clone DC6. The experiment in a line: Growth curve analysis over 10 days, clone DC6. In kind it is cell-based, Plasmodium falciparum. On the set-up: growth rate (r): unit not given here. Conditions: 0.75 μM Shield-1. The source says:
(§2) Fig 14 PmV-GFP-DD clone G6 generation and characterization. (A) Creation of a PmV-GFP-DD chimera by homologous recombination. […] The plasmid contains sequence from the PmV ORF 3’ end in frame with GFP-DD [24]. Relative positions of BsrGI restriction sites (vertical bars) and the probe are indicated. (B) Southern blot of BsrGI-restricted DNA from the parental strain 3D7, the 3 drug cycles (Selection I, II, III), 3 of the isolated clones, among which G6 is number 3, and the transfected plasmid (at the far right) is shown. Arrows: endogenous gene (blue), and modified PmV locus (green). (C) Live microscopy of the clone expressing the cytosolic YFP-DD chimera (via episomally maintained plasmid) and G6 in presence or absence of 0.5 μM Shield-1. Top to Bottom: bright field (grey), Hoechst (blue), fluorescent proteins (green), Lysotracker (red), merges of the blue and green channels and of all three channels. (D) Western blot of total lysates of parasites at diverse concentrations of Shield-1 (0–1 μM): clone DC6, clone G6 and 3D7 expressing YFP-DD. PmV was detected with both anti-GFP and anti-PmV. BiP detection served as loading control. (E) Live microscopy of the G6 clone expressing the PmV-GFP-DD chimera at various Shield-1 concentrations (0–1 μM). (F) PmV levels from DC6 (green) and G6 (red) were quantified from blot (panel D) and plotted as ratio of PmV to BiP. The last point of the ratio is affected by a reduced BiP expression in 1 μM Shield-1. This is possibly due to the level of toxicity of this molecule at high concentrations. (G) Flow cytometry analysis of the GFP signal of PmV-GFP-DD (clone G6) in presence (green line) or absence (red line) of 0.75 μM Shield-1 in respect of PmV-GFP (clone DC6) (black line). The cellular levels of PmV-GFP(±DD) are similar in the presence 0.75 μM Shield-1 while PmV-GFP-DD is about 4 times less than PmV-GFP in the absence of Shield-1. (H) Growth curve analysis over 10 days for PmV-GFP-DD and DC6 in the presence or absence of 0.75 μM Shield-1.

Experiment [5] deals with clone G6 (PmV-GFP-DD). The experiment in a line: Growth curve analysis over 10 days, clone G6. On the set-up: growth rate (r): unit not given here. In kind it is cell-based, Plasmodium falciparum. Conditions: 0.75 μM Shield-1.
Description: as §2

Setting [6] is: 3 μM HRPII-PExEl substrate, averages of not less than three inhibition curves, read-out: IC50.

Where “and” joins values, the source holds several entries; their conditions need not be identical. Equal entries are not always repeated. Where two headings read alike, the source gives them in different places. * marks the point of attachment. DABCYL = CN(C)c1ccc(/N=N/c2ccc(C(=O)*)cc2)cc1; EDANS = O=S(=O)(O)c1cccc2c(NCCN*)cccc12 Bounds are passed on as bounds.

For the molecule `CC(=O)N[C@@H](CCCNC(=N)N)C(=O)N[C@@H](CC(C)C)C(=O)N[C@@H](CC(C)C)C(O)CN[C@@H](C)C(=O)N[C@@H](CCC(N)=O)C(=O)N[C@@H](C)C(N)=O` (mixture of isomers) [Compound 35], the LD50 growth inhibition in experiment [1] is 16.5 μM and ~ 16.5 μM. For the same molecule, the affinity in experiment [2] corresponds to a Ki of 63.5 nM. Further, the IC50 in experiment [2] (setting [6]) amounted to 118 nM.
In experiment [1], `CC(C)C[C@H](NC(=O)[C@@H](N)CCC(N)=O)C(=O)N[C@@H](CC(C)C)[C@@H](O)CN[C@@H](C)C(=O)N[C@@H](CCC(=O)O)C(=O)N[C@@H](C)C(=O)O` [Compound 17a] registered an LD50 growth inhibition greater than 200 µM. In experiment [2], the affinity, expressed as Ki, was 2360 nM. Further, the IC50 in experiment [2] (setting [6]) was 4390 nM.
Take `O=c1oc2c(O)c(O)cc3c(=O)oc4c(O)c(O)cc1c4c23` [Ellagic acid, reference compound]: the LD50 growth inhibition in experiment [1] came to 2.4 µM.
In experiment [1], `CCCCCCCC(=O)N[C@@H](CCCNC(=N)N)C(=O)N[C@@H](CC(C)C)C(=O)N[C@@H](CC(C)C)[C@@H](O)CN[C@@H](Cc1ccc(O)cc1)C(=O)N[C@@H](CCC(=O)O)C(=O)N[C@@H](C)C(N)=O` [Compound 37a] had an LD50 growth inhibition greater than 200 µM. For the same molecule, in experiment [2], the Ki was determined as 0.01 nM and the “fold more active than parent compound 7a” value is “more than 50 fold”. The IC50 in experiment [2] (setting [6]) came out at 0.023 nM. For the same molecule, in experiment [2] (3 μM substrate, read-out: IC50), the IC50 is roughly 0.023 nM.
As to `CC[C@H](C)[C@H](NC(=O)[C@@H](N)CCCNC(=N)N)C(=O)N[C@@H](CC(C)C)C(O)CN[C@@H](C)C(=O)N[C@@H](CCC(=O)O)C(=O)N[C@@H](C)C(=O)O` (mixture of isomers) [Compound 6], in experiment [1], the LD50 growth inhibition is greater than 200 µM. In experiment [2], the “IC50 increase compared to Compound 5” value is listed as 1.3–3.5 fold and the Ki was found to be 1.16 nM. In experiment [2] (setting [6]), the IC50 came to 2.16 nM.
Take `CC[C@H](C)[C@H](NC(=O)[C@@H](N)CCCNC(=N)N)C(=O)N[C@@H](CC(C)C)C(O)CN[C@@H](C)C(=O)N[C@@H](CCC(=O)O)C(=O)N[C@@H](C)C(N)=O` (mixture of isomers) [Compound 5]: in experiment [1], the LD50 growth inhibition is greater than 200 µM. Also, the Ki in experiment [2] worked out at 0.35 nM. Also, the IC50 in experiment [2] (setting [6]) is 0.65 nM.
In experiment [1], `CC(C)C[C@H](NC(=O)[C@@H](N)CCCNC(=N)N)C(=O)N[C@@H](CC(C)C)[C@@H](O)CN[C@@H](C)C(=O)N[C@@H](CCC(N)=O)C(=O)N[C@@H](C)C(N)=O` [Compound 8a] showed an LD50 growth inhibition of 64.1 µM. In experiment [2], the “IC50 increase compared to Compound 1” value is ~ 4 fold and affinity was put at a Ki of 0.83 nM. For the same molecule, the IC50 in experiment [2] (setting [6]) came out at 1.55 nM.
For the molecule “DABCYL-LNKRLLHETQ-EDANS ({DABCYL}-LNKRLLHETQ-{EDANS}; SMILES CC(C)C[C@H](NC(=O)c1ccc(/N=N/c2ccc(N(C)C)cc2)cc1)C(=O)N[C@@H](CC(N)=O)C(=O)N[C@@H](CCCCN)C(=O)N[C@@H](CCCNC(=N)N)C(=O)N[C@@H](CC(C)C)C(=O)N[C@@H](CC(C)C)C(=O)N[C@@H](Cc1c[nH]cn1)C(=O)N[C@@H](CCC(=O)O)C(=O)N[C@H](C(=O)N[C@@H](CCC(N)=O)C(=O)NCCNc1cccc2c(S(=O)(=O)O)cccc12)[C@@H](C)O) [HRPII-derived fluorogenic substrate of PmV]”, the Km in experiment [3] came out at 3.48 µM. For the same molecule, the “K M” value in experiment [3] (substrate 0.19 to 6 μM) is listed as 3.48 (±0.7) 10^−6 M.
`CSCC[C@H](N)C(=O)N[C@@H](CC(C)C)C(=O)N[C@@H](CC(C)C)C(O)CN[C@@H](C)C(=O)N[C@@H](CCC(=O)O)C(=O)N[C@@H](C)C(=O)O` (mixture of isomers) [Compound 16]: the LD50 growth inhibition in experiment [1] was greater than 200 µM. The IC50 was greater than 10000 nM in experiment [2] (setting [6]) and “completely inactive” in experiment [2] (3 μM substrate, tested up to 10 μM).
Take `CC(C)C[C@H](NC(=O)[C@@H](N)CCCNC(=N)N)C(=O)N[C@@H](CC(C)C)C(O)CN[C@@H](C)C(=O)N[C@@H](CCC(=O)O)C(=O)N[C@@H](C)C(=O)O` (mixture of isomers) [Compound 4]: the LD50 growth inhibition in experiment [1] was greater than 200 µM. For the same molecule, in experiment [2], the “IC50 increase compared to Compound 1” value is recorded as 1.3–3.5 fold and the Ki is 0.7 nM. Also, in experiment [2] (setting [6]), the IC50 turned out to be 1.31 nM.
Take `CC(C)C[C@H](NC(=O)[C@@H](N)CCCNC(=N)N)C(=O)N[C@@H](CC(C)C)[C@H](O)CN[C@@H](C)C(=O)N[C@@H](CCC(N)=O)C(=O)N[C@@H](C)C(N)=O` [Compound 8b]: in experiment [1], the LD50 growth inhibition is ~ 120.5 μM.
Turning to `CC(C)C[C@H](NC(=O)[C@@H](N)Cc1c[nH]c2ccccc12)C(=O)N[C@@H](CC(C)C)[C@@H](O)CN[C@@H](C)C(=O)N[C@@H](CCC(=O)O)C(=O)N[C@@H](C)C(N)=O` [Compound 15a], the LD50 growth inhibition in experiment [1] is ~ 100.5 μM. This molecule displayed a Ki in experiment [2] of 1380 nM. Further, the IC50 in experiment [2] (setting [6]) was 2570 nM.
As for `CC[C@H](C(=O)N1CCCC[C@H]1C(=O)O[C@H](CCc1ccc(OC)c(OC)c1)c1cccc(OCCN2CCOCC2)c1)c1cc(OC)c(OC)c(OC)c1` [Shield-1], in experiment [4], the “doubling time (T)” value came out at 34.83 h, the “growth constant (k)” value was 0.0199 and the “growth rate (r)” value is listed as 2.01. In addition, in experiment [5], the “doubling time (T)” value is recorded as 34.15 h, the “growth constant (k)” value is given as 0.0203 and the “growth rate (r)” value was 2.05.
For the molecule `CC(C)C[C@H](NC(=O)[C@@H](N)Cc1c[nH]c2ccccc12)C(=O)N[C@@H](CC(C)C)[C@@H](O)CN[C@@H](Cc1ccc(O)cc1)C(=O)N[C@@H](CCC(=O)O)C(N)=O` [Compound 32a], in experiment [2] (3 μM substrate, tested up to 10 μM, read-out: IC50), the IC50 was greater than 10000 nM.
On to `CC(C)C[C@H](NC(=O)[C@@H](N)Cc1c[nH]c2ccccc12)C(=O)N[C@@H](CC(C)C)C(O)CN[C@@H](C)C(=O)N[C@@H](CCC(=O)O)C(N)=O` (mixture of isomers) [LG51_Mix], for which the IC50 in experiment [2] (Activity, read-out: IC50) was 39500 nM; in experiment [2] (Activity, read-out: pIC50 (converted)), 39800 nM.
